Patent US7687514B2, “Benzimidazole derivatives” (Banyu Pharmaceuticals Co., Ltd., priority 2002, dated 2010)
pIC50: −log10 of the molar value. Read-outs that look alike come from different tables or passages of the source.

Legend:
[1] = Brain/cerebrospinal fluid transport test; type: in vivo, male SD rats; details: rat, 2 hours after oral administration (10 mg/kg); for concentration at 2 h: male, SD
Method: Pharmacological Test 4 (Brain/Cerebrospinal Fluid Transport Test)
A test compound was orally or intravenously administered to male SD rats (7-10 weeks old, 200-400 g), and whole blood was collected from the abdominal aorta of said rats anesthetized with ether at predetermined time, using a heparin-treated syringe. Then, the head skin was cut open, and a dental 30 G needle was inserted between the cervical vertebrae, and it was further inserted into the cavum subarachnoideale. After 50 to 100 μL cerebrospinal fluid had been collected by a 1 ml-syringe through a tube connected to said dental 30 G needle, the brain was extracted. The blood sample was centrifuged (4° C., 6,000 r.p.m., 10 minutes) to collect the plasma, to which was added 3-fold amount of ethanol containing an internal standard, and the mixture was stirred. The brain sample was homogenized after addition of 2 ml water, an aliquot of the homogenate was taken and 3-fold amount of ethanol containing an internal standard was added thereto and stirred. The cerebrospinal fluid was stirred after adding 3-fold amount of ethanol containing an internal standard. The samples thus obtained were allowed to stand at −20° C. for 20 minutes, and then centrifuged (4° C., 12,000 g, 10 minutes). The supernatant was analyzed by LC/MS/MS, and the concentration of the test compound in the plasma, brain, and cerebrospinal fluid were measured by the method using a relative calibration curve.

[2] = Pharmacokinetics test (plasma concentration after oral or intravenous administration); type: in vivo; details: rat, male SD rats
Method: Pharmacological Test 3 (Pharmacokinetics Test)
A test compound was orally or intravenously administered to male SD rats (7-10 weeks old, 200-400 g) which abstained from food overnight. About 100 μL of blood was collected from the tail vein at predetermined time, using a heparinized capillary. The blood was centrifuged (4° C., 6,000 r.p.m., 10 minutes) to collect the plasma, to which was added 3-fold amount of ethanol containing an internal standard. The mixture was stirred, allowed to stand at −20° C. for 20 minutes, and then centrifuged (4° C., 10,000 r.p.m., 10 minutes). The supernatant was analyzed by LC/MS/MS, and the concentration of the test compound in the plasma was measured using a relative calibration curve.

human NPY Y5 receptor = biological target: T1, human NPY Y5 receptor (Homo sapiens, UniProt Q15761); assay: NPY binding inhibition test ([125I]peptide YY binding to membranes of NPY Y5 receptor expressing cells); details: 25° C., 2 hours, membrane of NPY Y5 receptor expressing cells, read-out: IC50 against specific peptide YY binding
T1 construct: expressed in transfected cells; host or cells: COS-7, CHO and LM(tk-)
T1 sequence (Q15761 1-445): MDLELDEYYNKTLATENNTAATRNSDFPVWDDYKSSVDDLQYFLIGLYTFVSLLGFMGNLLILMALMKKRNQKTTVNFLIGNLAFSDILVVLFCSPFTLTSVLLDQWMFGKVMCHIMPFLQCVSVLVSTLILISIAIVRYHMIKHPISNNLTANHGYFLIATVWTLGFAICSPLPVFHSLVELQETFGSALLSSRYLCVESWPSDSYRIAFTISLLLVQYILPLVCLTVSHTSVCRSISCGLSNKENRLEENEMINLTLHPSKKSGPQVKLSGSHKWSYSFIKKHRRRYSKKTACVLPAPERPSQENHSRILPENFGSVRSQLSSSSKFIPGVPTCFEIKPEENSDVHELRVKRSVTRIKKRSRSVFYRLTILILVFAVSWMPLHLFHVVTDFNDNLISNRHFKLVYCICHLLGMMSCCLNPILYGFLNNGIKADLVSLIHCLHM
Text: Pharmacological Test 1 (NPY Binding Inhibition Test)
cDNA sequence encoding human NPY Y5 receptor (c.f. International patent publication number WO96/16542) was cloned into expression vectors pcDNA3, pRc/RSV (made by Invitrogen Inc.) and pCI-neo (made by Promega Inc.). The expression vectors thus obtained were transfected to host cells COS-7, CHO and LM(tk-) (American Type Culture Collection) by cationic lipid method (Proceedings of the National Academy of Sciences of the United States of America, 84: 7413(1987)) to give NPY Y5 receptor expression cells.
A membrane sample prepared from the cells which expressed NPY Y5 receptor was incubated together with a test compound and [^125I]peptide YY (made by NEN) (20,000 cpm) in an assay buffer (25 mM Tris buffer, pH 7.4, containing 10 mM magnesium chloride, 1 mM phenylmethylsulfonyl fluoride, 0.1% bacitracin and 0.5% bovine serum albumin) at 25° C. for 2 hours, then filtered through a glass filter GF/C and washed with 5 mM Tris buffer (pH 7.4) containing 0.3% BSA. The radioactivity of the cake on the glass filter was measured. Non-specific binding was measured in the presence of 1 μM peptide YY, and a 50% Inhibitory Concentration (IC50) of the test compound against specific peptide YY binding was determined (Endocrinology, 131: 2090(1992)).

Row | SMILES | pIC50 (human NPY Y5 receptor) | other results
1 | O=C1OC2(CCC(c3nc4cnc(-c5ccccc5)nc4[nH]3)CC2)c2ccccc21 (stereo not drawn) [Example 6, trans-8-[3′-oxospiro[cyclohexane-1,1′(3′H)-isobenzofuran]-4-yl]-2-phenylpurine] | 8.66 | concentration at 2 h ([1]; cerebrospinal fluid, read-out: concentration in the cerebrospinal fluid): 33 nM; concentration at 2 h ([1]; plasma, read-out: concentration in the plasma): 2770 nM; concentration in the brain [1]: 1.10 nmol/g; bioavailability ([2]; oral or intravenous administration): 78%; half-life ([2]; read-out: half-life in the blood (converted)): 180 min
2 | O=C1OC2(CCC(c3nc4cnc(-c5ccc(F)cc5)nc4[nH]3)CC2)c2cnccc21 (stereo not drawn) [Example 13, Trans-2-(4-fluorophenyl)-8-[3-oxospiro[6-azaisobenzofuran-1(3H),1′-cyclohexan]-4′-yl]purine] | 8.54 | –
3 | O=C1OC2(CCC(c3nc4cnc(-c5ccccc5F)nc4[nH]3)CC2)c2ccccc21 (stereo not drawn) [Example 8, Trans-2-(2-fluorophenyl)-8-[3′-oxospiro[cyclohexane-1,1′(3′H)-isobenzofuran]-4-yl]purine] | 8.74 | –

Further lines, with some results ahead:

Row | pIC50 (human NPY Y5 receptor) | SMILES | other results
4 | 8.64 | O=C1OC2(CCC(c3nc4cnc(-c5ccccc5F)nc4[nH]3)CC2)c2cnc(F)cc21 (stereo not drawn) [Example 20, Trans-8-[5-fluoro-3-oxospiro[6-azaisobenzofuran-1(3H),1′-cyclohexan]-4′-yl]-2-(2-fluorophenyl)purine] | –
5 | 9.14 | O=C1OC2(CCC(c3nc4ccc(-c5ccccc5F)nc4[nH]3)CC2)c2cnccc21 (stereo not drawn) [Example 27, Trans-5-(2-fluorophenyl)-2-[3-oxospiro[6-azaisobenzofuran-1(3H),1′-cyclohexan]-4′-yl]imidazo[4,5-b]pyridine] | –
6 | 8.57 | O=C1OC2(CCC(c3nc4cnc(-c5cc(F)ccc5F)nc4[nH]3)CC2)c2cnccc21 (stereo not drawn) [Example 17, Trans-2-(2,5-difluorophenyl)-8-[3-oxospiro[6-azaisobenzofuran-1(3H),1′-cyclohexan]-4′yl]purine] | –
